# Source: patent publication US10399968B2, “Hydroxyalkyl thiadiazole derivatives” (Daiichi Sankyo Company, Limited, priority 2015, dated 2019)
# Like-named read-outs stand apart in the source and are kept apart here.
# Columns and labels:
# E. faecium ATCC 29212 = assay: Susceptibility of bacteria, broth microdilution MIC; format: cell-based; details: Enterococcus faecium, ATCC29212
# Procedure: (§1) The antibacterial activity of the compounds of the present invention was tested by the broth microdilution method. The assay was carried out according to the CLSI guidelines for managing the procedures of susceptibility tests: “M7-A7 Methods for Dilution Antimicrobial Susceptibility Tests for Bacteria That Grow Aerobically; Approved Standard-Seventh Edition (2006)”. Test strains were grown on appropriate agar plates overnight. A broth containing the test compound diluted serially 2-fold and diluents were dispensed at 100 μL to each well of a 96-well microplate. As a growth control, a well with a broth not containing the test compound was also prepared. Colonies grown on the plates were suspended in saline, adjusted to 0.5 McFarland (OD625=0.08 to 0.10) using a colorimeter, and then diluted 10-fold with saline. The bacterial suspension was inoculated at 4 μL into each well of the microplate using a bacterial suspension inoculation apparatus. The inoculated microplate was incubated at 35° C. overnight (about 20 hours). The growth condition was observed by the naked eye, and the minimum concentration to inhibit bacterial proliferation was defined as a minimum inhibitory concentration (MIC).
# [1] = test system: Haemophilus influenzae ATCC 49247; assay: as above; format: cell-based; details: ATCC49247
# Procedure: as §1
# [2] = test system: Streptococcus pneumoniae ATCC 49619; assay: as above; format: cell-based; details: ATCC49619
# Procedure: as §1
# [3] = Solubility in water (JP1 / JP2 fluids); format: physicochemical; details: thermodynamic from solid
# In short: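 DMSO stock (10 mmol/L) dried down, residue shaken 30 min in JP1 or JP2 fluid after 1 min sonication, then held 1 h dark at room temperature. Filtrate diluted and quantified by UPLC against 100 and 5 μmol/L standards.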
# [4] = Oral bioavailability (BA) in rats; format: in vivo; details: male, SD, blood; Rat, 2 mg/kg oral vs jugular vein
# Procedure: To SD male rats (7 week-old) fasted overnight, a solution of the test compound Captisol® was administered into the jugular vein (3 animals) and a solution of Lutrol® F68 was administered orally (3 animals). The dose of the test compounds was 2 mg/kg body weight of the rat for both administration routes. The amount of Captisol® used was 0.36 mg/kg body weight of the rat. The amount of Lutrol® F68 used was 0.02 mg/kg body weight of the rat. The BA value was calculated by the formula below using the integration value (AUCiv(0-∞)) of the blood concentration extrapolated from time 0 to infinity after administration of both test compounds. The greater a BA value of the compound shown, the higher the oral bioavailability is.
# P. acnes ATCC 6523 = assay: Susceptibility of P. acnes, agar dilution MIC; format: cell-based; details: Cutibacterium acnes, ATCC6523, anaerobic
# Procedure: (§2) The antibacterial activity of the compounds of the present invention against P. acnes clinical isolates was tested by the agar dilution method. The assay was carried out according to the CLSI guidelines document (Clinical and Laboratory Standards Institute, 2012 & 2016). The test strains were spread on supplemented Brucella agar (SBA) plates and grown for 42 to 48 hours at 36° C. under anaerobic condition. The test compound dilutions were prepared with Brucella broth and SBA plates containing dilution of test compound were prepared. As an anaerobic growth control and to check the aerobic contamination, plates not containing the test compound were also prepared. Colonies grown on plates were suspended with Brucella broth to adjust the turbidity to 0.5 McFarland using a densitometer. Suspension (1-2 μL) of the test strains was inoculated onto each agar surface by using a bacterial suspension inoculation apparatus (multipoint inoculator). After anaerobic incubation for 42 to 48 hours at 36° C., absence and presence of growth of each strain on growth control plates and test compounds plate were examined with unaided eye. The MIC was determined at which a marked reduction occurs in the appearance of growth on the test plate as compared to that of growth on the anaerobic control plates.
# P. acnes ATCC 6921 = assay: Susceptibility of P. acnes, agar dilution MIC; format: cell-based; details: Cutibacterium acnes, ATCC6921, anaerobic
# Procedure: as §2
# P. acnes IHMA 103740 = assay: Susceptibility of P. acnes, agar dilution MIC; format: cell-based; details: Cutibacterium acnes, IHMA103740, anaerobic
# Procedure: as §2
# P. acnes IHMA 775486 = assay: Susceptibility of P. acnes, agar dilution MIC; format: cell-based; details: Cutibacterium acnes, IHMA775486, anaerobic
# Procedure: as §2
# [5] = test system: N. gonorrhoeae clinical isolates; assay: Susceptibility of N. gonorrhoeae, agar dilution MIC; format: cell-based
# Procedure: The antibacterial activity of the compounds of the present invention against N. gonorrhoeae clinical isolates was tested by the agar dilution method [Clinical and Laboratory Standards Institute, 2016]. The test strains were spread on chocolate agar plates and grown for 20-24 h at 36° C. in 5% carbon dioxide. The test compound dilutions were prepared with broth and agar MIC plates were prepared using GC agar base supplemented with haemoglobin and 1% IsoVitaleX plates. As growth control plates not containing the test compound were also prepared. Colonies grown on plates were suspended with broth to adjust the turbidity to 0.5 McFarland using a densitometer. Suspension (1-2 μL) of the test strains was inoculated onto each agar surface by using a bacterial suspension inoculation apparatus (multipoint inoculator). After aerobic incubation for 20-24 h at 36° C. in 5% carbon dioxide, absence and presence of growth of each strain on growth control plates and test compounds plate were examined with unaided eye. The MIC was determined at which a marked reduction occurs in the appearance of growth on the test plate as compared to that of growth on the aerobic control plates.
# [6] = Japanese Pharmacopeia First Fluid (JP1), pH 1.2, simulated gastric fluid, read-out: Solubility JP1
# [7] = Japanese Pharmacopeia Second Fluid (JP2), pH 6.8, aqueous buffer, read-out: Solubility JP2
SMILES,MIC (E. faecium ATCC 29212),MIC [1],MIC [2],"solubility at 30 min [3, 6]","solubility at 30 min [3, 7]",bioavailability [4],MIC (P. acnes ATCC 6523),MIC (P. acnes ATCC 6921),MIC (P. acnes IHMA 103740),MIC (P. acnes IHMA 775486),MIC [5]
"CCc1[nH]c(C(=O)N[C@@H]2CCN(c3nnc([C@H](C)O)s3)C[C@@H]2OC)nc1Cl (single isomer, unassigned) [Compound No. 5]",0.25 mg/L,1 mg/L,0.25 mg/L,0.68 mg/mL,0.359 mg/mL,60%,,,,,
"CCc1[nH]c(C(=O)N[C@@H]2CCN(c3nnc(C(C)(C)O)s3)C[C@@H]2OC)nc1Cl [Compound No. 2, 4-Chloro-5-ethyl-N-{(3S,4R)-1-[5-(2-hydroxypropan-2-yl)-1,3,4-thiadiazol-2-yl]-3-methoxypiperidin-4-yl}-1H-imidazole-2-carboxamide]",0.25 mg/L,0.5 mg/L,0.25 mg/L,0.706 mg/mL,0.256 mg/mL,98%,0.125 mg/L,0.125 mg/L,0.125 mg/L,0.125 mg/L,0.25 mg/L
